Literature values in patent US20120141611A1, “METHODS AND COMPOSITIONS USING ERGOTHIONEINE TO TREAT A VARIETY OF HEALTH RELATED FACTORS” (Oxis International Inc., priority 2010, published 2012).
In brackets after ≈: the same amount, converted by molar mass. Entries after “also recorded” stand apart in the source; their conditions may differ. Like-named read-outs stand apart in the source and are kept apart here.

Key:
[1] = rats, 8 mg/100 gm body weight for 7 days pre-administration; cited from earlier work
[2] = TLC densitometry, cited from earlier work
[3] = animal studies, in the diet; cited from earlier work
[4] = cited from earlier work
Mn-superoxide dismutase = biological target: T1, Mn-superoxide dismutase (Mus musculus, UniProt P09671); conditions: 12.5 mM; cited from earlier work
T1 sequence (P09671 25-222): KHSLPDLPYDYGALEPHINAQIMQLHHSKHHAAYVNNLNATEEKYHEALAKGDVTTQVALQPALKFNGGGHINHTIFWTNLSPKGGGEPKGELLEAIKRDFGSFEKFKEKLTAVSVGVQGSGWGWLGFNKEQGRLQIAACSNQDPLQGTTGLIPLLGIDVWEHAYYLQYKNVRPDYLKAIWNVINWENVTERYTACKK

rat retina = conditions: NMDA, cited from earlier work
[5] = low concentrations; cited from earlier work
mouse skin = conditions: UV-induced skin damage; cited from earlier work
glutathione peroxidase = conditions: mouse liver cytosol fractions; cited from earlier work
cerebellum = conditions: decerebrate rabbit; cited from earlier work
[6] = physiological concentrations; cited from earlier work
[7] = Ox; cited from earlier work
[8] = Sheep; cited from earlier work
[9] = into the organs, principally the liver; cited from earlier work
[10] = cited from earlier work; remark: listed apart in the source
[11] = cited from earlier work; remark: listed apart in the source
[12] = room temperature; cited from earlier work
[13] = physiological concentrations; cited from earlier work; remark: listed apart in the source
human red cell cells = conditions: 1 mM, intact human red cells in vitro; cited from earlier work
[14] = ergothioneine ingestion or administration, humans or animals; cited from earlier work
[15] = cited from earlier work; remark: listed apart in the source
[16] = Rat, cited from earlier work
[17] = Fowl; cited from earlier work
glutathione reductase = biological target: T2, glutathione reductase (Mus musculus, UniProt P47791); conditions: mouse liver cytosol fractions; cited from earlier work
T2 construct: glutathione peroxidase and glutathione reductase activities in mouse liver cytosol fractions; from tissue; host or cells: mouse liver cytosol fractions (result quoted from the literature)
T2 sequence (P47791 27-500): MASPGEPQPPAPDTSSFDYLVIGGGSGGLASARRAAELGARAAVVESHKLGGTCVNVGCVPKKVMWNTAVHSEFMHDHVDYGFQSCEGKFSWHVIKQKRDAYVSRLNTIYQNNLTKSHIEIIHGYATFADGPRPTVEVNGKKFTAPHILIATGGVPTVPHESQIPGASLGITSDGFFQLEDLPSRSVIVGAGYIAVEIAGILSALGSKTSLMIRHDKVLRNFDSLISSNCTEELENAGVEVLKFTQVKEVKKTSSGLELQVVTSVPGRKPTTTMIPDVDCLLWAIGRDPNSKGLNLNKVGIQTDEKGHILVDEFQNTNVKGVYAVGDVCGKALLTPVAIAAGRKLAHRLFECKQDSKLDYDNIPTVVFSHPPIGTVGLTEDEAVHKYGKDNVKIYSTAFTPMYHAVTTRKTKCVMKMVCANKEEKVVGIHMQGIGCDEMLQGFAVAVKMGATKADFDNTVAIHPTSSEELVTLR

spermatozoa = conditions: cited from earlier work
Cu/Zn SOD = Cu/Zn SOD (Mus musculus, UniProt P08228); conditions: 12.5 mM; cited from earlier work
erythrocytes = conditions: rats, administered in the diet; cited from earlier work
[18] = 225 g rat, controlled diet of ergothioneine supplementation

Cu/Zn SOD, sequence (P08228 whole entry): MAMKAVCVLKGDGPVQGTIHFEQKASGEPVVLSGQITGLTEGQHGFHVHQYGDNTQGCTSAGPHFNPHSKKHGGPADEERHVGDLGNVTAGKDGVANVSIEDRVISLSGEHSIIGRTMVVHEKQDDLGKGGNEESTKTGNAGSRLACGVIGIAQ

Q: What does the source list for `C[N+](C)(C)[C@@H](Cc1c[nH]c(=S)[nH]1)C(=O)[O-]` [Ergothioneine, ergothioneine]?
A: Hepatic injury after a single injection of ethionine [1]: inhibited; Hepatic lipid peroxide formation [1]: reduced; Level in rat tissue ([2]; brain): 0.41 mg/100 g; Level in rat tissue ([2]; kidney): 1.58 mg/100 g; Level in rat tissue ([2]; liver): 7.82 mg/100 g; Level in rat tissue ([2]; plasma): 0.21 mg/100 g; Level in rat tissue ([2]; testicle): 0.5 mg/100 g; Dietary level producing measurable changes in circulating whole blood levels [3]: 1 part per 100,000; Absorptive gain per day [4, 18]: 20 µg/day; Fecal and urine loss [4, 18]: 2 ug/per day; Fraction of dietary ergothioneine absorbed ([4]; 225 gm rat, 20 ug/day in the diet (Mayumi et al.)): 90%; Time to double the total body amount of ergothioneine ([4]; rat, 89 ug ergothioneine/kg-day supplementation): approximately 2 months; Accumulation rate ([4]; rat, from gain and loss per day): 90%; Mitochondrial Mn-superoxide dismutase activity (Mn-superoxide dismutase): nearly doubled; Loss of nonganglion cells (rat retina; rats treated with ergothioneine (43% without)): 31%; Loss of ganglion cells (rat retina; rats treated with ergothioneine (81% without)): 44%; Ameloid Precursor Protein (APP) (rat retina): significant decreases; Radioprotection in vitro [5]: very potent radioprotector even at low concentrations; Protection of mouse skin in vivo (mouse skin): failed to protect mouse skin in vivo; Glutathione peroxidase activity (glutathione peroxidase): markedly increased; Action on the electrical activity of the cerebellum (cerebellum): some excitatory action; Protection of API against HOCl-induced inactivation [6]: protect very efficiently; Concentration of l-ergothioneine in the blood [7]: 0.5-2 mg/100 ml blood; Concentration of l-ergothioneine in the blood [8]: 2-6 mg/100 ml blood; Disappearance from the plasma after intravenous administration [9]: rapid disappearance; Sulfur label recovered in the urine as free sulfate ([10]; 35S-ergothioneine): 35-65%; Dose recovered by urinary excretion ([10]; bolus injected, in approximately 6 hours): 60%; Share of urine products identified as ergothioneine ([10]; bolus injected): About one-third; Share of urine products identified as hercynine ([10]; bolus injected): About one-third; Concentration of LE in tissue ([11]; Rabbit, Heart): 2.7 mgs/100 gm fresh tissue; Concentration of LE in tissue ([11]; Rabbit, Kidney): 0.3 mgs/100 gm fresh tissue; Concentration of LE in tissue ([11]; Rabbit, Liver): 0.3 mgs/100 gm fresh tissue; Concentration of LE in tissue ([11]; Rabbit, Lungs): 0.3 mgs/100 gm fresh tissue; Concentration of LE in tissue ([11]; Rabbit, RBC): 10 mgs/100 gm fresh tissue; Concentration of LE in tissue ([11]; Rabbit, Spleen): 1.0 mgs/100 gm fresh tissue; Concentration of LE in tissue ([11]; Rabbit, Testes): 0.1 mgs/100 gm fresh tissue; Concentration of l-ergothioneine in the blood ([11]; Rabbit): 1-10 mg/100 ml blood; Ergothioneine in optic nerves ([11]; optic nerves of the rabbit): 30 µg/g; Solubility limit [12]: 900 mM (≈ 206 mg/mL); Inactivation of hydroxyl radical [13]: potent diffusion-controlled inactivation; Glycolytic activity (human red cell cells): significant increase in glycolytic activity; Deleterious / negative side effects [14]: No documented negative side effects; also recorded: no deleterious effects; Concentration of l-ergothioneine in the blood ([15]; G. Pig): 1-4 mg/100 ml blood; Ergothioneine in brain ([15]; brains of guinea-pigs): 10 µg/g; Concentration of LE in tissue ([16]; Heart): 1.5 mgs/100 gm fresh tissue; Concentration of LE in tissue ([16]; Intestine): 0.6 mgs/100 gm fresh tissue; Concentration of LE in tissue ([16]; Kidney): 4.3 mgs/100 gm fresh tissue; Concentration of LE in tissue ([16]; Liver): 13.3 mgs/100 gm fresh tissue; Concentration of LE in tissue ([16]; Lungs): 1.5 mgs/100 gm fresh tissue; Concentration of LE in tissue ([16]; Muscle): 0.7 mgs/100 gm fresh tissue; Concentration of LE in tissue ([16]; Plasma): 0.0 mgs/100 gm fresh tissue; Concentration of LE in tissue ([16]; RBC): 10.4 mgs/100 gm fresh tissue; Concentration of LE in tissue ([16]; Spleen): 1.1 mgs/100 gm fresh tissue; Concentration of LE in tissue ([16]; Stomach): 0.4 mgs/100 gm fresh tissue; Concentration of LE in tissue ([16]; Testes): 0.0 mgs/100 gm fresh tissue; Concentration of l-ergothioneine in the blood [16]: 1-6 mg/100 ml blood; Concentration of l-ergothioneine in the blood [17]: 2-10 mg/100 ml blood; Glutathione reductase activity (glutathione reductase): markedly increased; Effect on spermatozoa viability and survival under hydrogen peroxide (spermatozoa): counteracts the effects of hydrogen peroxide on spermatozoa viability and survival; Cytosolic Cu/Zn SOD activity (Cu/Zn SOD): no increased activity; Erythrocyte lactate level on starvation (erythrocytes): prevented a 40% starvation-induced diminution
